Measured values from patent US20260325533A1, “CDK INHIBITOR COMPOUNDS” (ALEKSIA THERAPEUTICS, INC., priority 2023, published 2026).
Read-outs that look alike come from different tables or passages of the source.

Key:
Type in all cases: biochemical
CDK6/CCND1 = CDK6/CCND1 (Homo sapiens, UniProt Q00534); test: CDK6 homogeneous time-resolved fluorescence (HTRF) kinase assay
Method in brief: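 Enzyme pre-incubated 20 min at 23 °C with compound, then reacted 60 min at 23 °C with 1 mM ATP and 50 nM ULight-4E-BP1 (Thr37/46) peptide; 1 nM enzyme, 1% DMSO. EDTA-stopped, Eu-anti-phospho antibody TR-FRET read (665 nm or 665/615 ratio); 11-point half-log titration from 10 μM gave IC50.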

CDK4/CCND3 = CDK4/CCND3 (Homo sapiens, UniProt P11802); test: CDK4 homogeneous time-resolved fluorescence (HTRF) kinase assay
Method in brief: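 Steps: compound plus 1.5 nM CDK4/CCND3, 20 min, 23 °C; add 1 mM ATP and 50 nM ULight-4E-BP1 (Thr37/46) peptide, 60 min; stop with 10 mM EDTA; add 2 nM Eu anti-phospho antibody, 60 min; read 665 nm. IC50 from 11-point half-log series starting 10 μM.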

CDK1/CCNB1 = CDK1/CCNB1 (Homo sapiens, UniProt P06493); test: CDK1 homogeneous time-resolved fluorescence (HTRF) kinase assay
Method in brief: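 0.5 nM CDK1/CCNB1 was preincubated 20 min at 23 °C with compound in HEPES pH-unspecified buffer (MgCl2, EGTA, DTT, Tween 20), then reacted 60 min with 1 mM ATP and 50 nM ULight-4E-BP1 (Thr37/46) peptide. EDTA-stopped reactions were detected with 2 nM Eu-anti-phospho antibody; IC50 from 11-point half-log titrations.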

CDK2/CCNE1 = CDK2/CCNE1 (Homo sapiens, UniProt P24941); test: CDK2 homogeneous time-resolved fluorescence (HTRF) kinase assay
Method in brief: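 CDK2/CCNE1 (3 nM) preincubated 20 min at 23 °C with compound, then reacted 60 min at 23 °C with 1 mM ATP and 50 nM ULight-4E-BP1 (Thr37/46) peptide. Stopped with EDTA, phospho-peptide detected by Eu-anti-phospho antibody (665 nm or 665/615 ratio). IC50 from 11-point half-log titrations typically starting at 10 μM.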

[1] = 25-250 nM, CDK6/CCND, 1 mM ATP, read-out: CDK6/CCND IC50, 25-250 nM
[2] = 25-250 nM, CDK4/CCND, read-out: CDK4/CCND IC50, 25-250 nM
[3] = <25 nM, CDK2/CCNE, read-out: CDK2/CCNE IC50, <25 nM
[4] = CDK6/CCND, x = IC50 25-250 nM, read-out: CDK6/CCND IC50 (25-250 nM)
[5] = CDK4/CCND, x = IC50 25-250 nM, read-out: CDK4/CCND IC50 (25-250 nM)
[6] = CDK1/CCNB, x = IC50 25-250 nM, read-out: CDK1/CCNB IC50 (25-250 nM)
[7] = CDK2/CCNE, x = IC50 <25 nM, read-out: CDK2/CCNE IC50 (<25 nM)
[8] = CDK6/CCND, x = IC50 >250 nM, read-out: CDK6/CCND IC50 (>250 nM column)
[9] = CDK4/CCND, x = IC50 >250 nM, read-out: CDK4/CCND IC50 (>250 nM column)
[10] = CDK1/CCNB, x = IC50 >250 nM, read-out: CDK1/CCNB IC50 (>250 nM column)
[11] = CDK2/CCNE, x = IC50 25-250 nM, read-out: CDK2/CCNE IC50 (25-250 nM)
[12] = >250 nM, CDK6/CCND, 1 mM ATP, read-out: CDK6/CCND IC50, >250 nM
[13] = >250 nM, CDK4/CCND, read-out: CDK4/CCND IC50, >250 nM
[14] = >250 nM, CDK1/CCNB, read-out: CDK1/CCNB IC50 >250 nM

Chain of CDK6/CCND1 (Q00534 whole entry): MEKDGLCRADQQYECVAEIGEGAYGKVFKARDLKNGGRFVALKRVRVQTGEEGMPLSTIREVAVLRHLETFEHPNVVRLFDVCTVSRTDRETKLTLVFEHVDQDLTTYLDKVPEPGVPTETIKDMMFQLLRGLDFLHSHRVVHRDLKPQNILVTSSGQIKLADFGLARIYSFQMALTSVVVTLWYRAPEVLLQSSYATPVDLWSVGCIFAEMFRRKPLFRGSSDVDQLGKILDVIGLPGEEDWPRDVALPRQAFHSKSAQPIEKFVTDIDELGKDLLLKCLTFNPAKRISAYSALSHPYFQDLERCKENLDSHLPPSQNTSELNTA
Chain of CDK6/CCND1 (P24385 whole entry partner): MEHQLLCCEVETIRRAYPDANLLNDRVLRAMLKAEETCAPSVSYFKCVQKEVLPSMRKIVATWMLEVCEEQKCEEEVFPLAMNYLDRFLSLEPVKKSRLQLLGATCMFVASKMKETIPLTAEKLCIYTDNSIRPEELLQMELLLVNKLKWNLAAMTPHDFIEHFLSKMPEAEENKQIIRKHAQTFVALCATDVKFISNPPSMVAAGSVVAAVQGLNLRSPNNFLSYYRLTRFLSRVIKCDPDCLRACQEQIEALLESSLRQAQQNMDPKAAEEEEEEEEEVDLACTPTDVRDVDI
Chain of CDK1/CCNB1 (P06493 whole entry): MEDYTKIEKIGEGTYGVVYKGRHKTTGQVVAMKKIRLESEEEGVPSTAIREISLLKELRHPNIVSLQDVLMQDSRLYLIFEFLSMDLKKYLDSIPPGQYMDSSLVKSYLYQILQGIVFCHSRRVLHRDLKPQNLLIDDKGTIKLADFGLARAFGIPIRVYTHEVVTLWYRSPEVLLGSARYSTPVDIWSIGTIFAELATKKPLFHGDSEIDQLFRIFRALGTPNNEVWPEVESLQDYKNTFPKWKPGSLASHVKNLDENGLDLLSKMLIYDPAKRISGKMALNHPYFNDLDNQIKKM
Chain of CDK1/CCNB1 (P14635 whole entry partner): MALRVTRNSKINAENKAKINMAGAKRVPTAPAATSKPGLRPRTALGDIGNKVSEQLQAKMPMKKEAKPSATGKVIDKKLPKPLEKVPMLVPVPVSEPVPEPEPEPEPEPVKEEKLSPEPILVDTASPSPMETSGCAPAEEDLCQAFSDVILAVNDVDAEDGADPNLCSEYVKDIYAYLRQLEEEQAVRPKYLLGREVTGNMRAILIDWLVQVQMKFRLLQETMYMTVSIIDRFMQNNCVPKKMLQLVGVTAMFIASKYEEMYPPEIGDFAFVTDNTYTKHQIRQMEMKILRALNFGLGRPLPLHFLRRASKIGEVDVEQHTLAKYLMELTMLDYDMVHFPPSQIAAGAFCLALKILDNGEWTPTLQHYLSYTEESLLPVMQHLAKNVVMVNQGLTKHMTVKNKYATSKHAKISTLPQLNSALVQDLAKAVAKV
Chain of CDK4/CCND3 (P11802 whole entry): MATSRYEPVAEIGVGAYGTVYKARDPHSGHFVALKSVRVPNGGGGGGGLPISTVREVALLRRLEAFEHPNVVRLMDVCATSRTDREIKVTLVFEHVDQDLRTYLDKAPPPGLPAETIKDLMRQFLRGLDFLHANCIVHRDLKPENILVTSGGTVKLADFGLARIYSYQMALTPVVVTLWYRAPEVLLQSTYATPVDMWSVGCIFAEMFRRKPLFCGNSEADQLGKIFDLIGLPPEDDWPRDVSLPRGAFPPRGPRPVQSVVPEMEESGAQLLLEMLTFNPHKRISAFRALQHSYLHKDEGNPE
Chain of CDK4/CCND3 (P30281 whole entry partner): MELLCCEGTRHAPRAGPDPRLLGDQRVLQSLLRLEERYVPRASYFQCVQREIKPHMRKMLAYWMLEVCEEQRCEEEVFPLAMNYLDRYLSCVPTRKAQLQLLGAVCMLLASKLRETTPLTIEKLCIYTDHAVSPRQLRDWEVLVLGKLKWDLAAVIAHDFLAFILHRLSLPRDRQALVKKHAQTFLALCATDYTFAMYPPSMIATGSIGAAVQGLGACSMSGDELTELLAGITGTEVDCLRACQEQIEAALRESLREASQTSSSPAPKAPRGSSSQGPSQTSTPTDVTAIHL

## Cc1c(-c2nccc3cnc(Nc4ccc(NS(=O)(=O)c5cccnn5)cc4)cc23)ccc2c1cnn2CC(C)(C)O [Ex 754, N-(4-((5-(1-(2-hydroxy-2-methylpropyl)-4-methyl-1H-indazol-5-yl)-2,6-naphthyridin-3-yl)amino)phenyl)pyridazine-3-sulfonamide]
CDK6/CCND1; [1]
  IC50: 25 to 250 nM
CDK4/CCND3; [2]
  IC50: 25 to 250 nM
CDK1/CCNB1; 25-250 nM, CDK1/CCNB, read-out: CDK1/CCNB IC50, 25-250 nM
  IC50: 25 to 250 nM
CDK2/CCNE1; [3]
  IC50: < 25 nM

## CC1(CO)C(=O)Nc2cc(C#Cc3nccc4cnc(Nc5ccc(S(C)(=O)=O)cc5)cc34)ccc21 (single isomer, unassigned) [Example 372, 3-(hydroxymethyl)-3-methyl-6-((7-((4-(methylsulfonyl)phenyl)amino)-2,6-naphthyridin-1-yl)ethynyl)indolin-2-one]
CDK6/CCND1; [4]
  IC50: 25 to 250 nM
CDK4/CCND3; [5]
  IC50: 25 to 250 nM
CDK1/CCNB1; [6]
  IC50: 25 to 250 nM
CDK2/CCNE1; [7]
  IC50: < 25 nM

## Cc1c(-c2nccc3cnc(Nc4ccc(S(C)(=O)=O)cc4)cc23)ccc2cn[nH]c12 [Ex 658, 5-(7-methyl-1H-indazol-6-yl)-N-(4-(methylsulfonyl)phenyl)-2,6-naphthyridin-3-amine]
CDK6/CCND1; [4]
  IC50: 25 to 250 nM
CDK4/CCND3; [5]
  IC50: 25 to 250 nM
CDK1/CCNB1; [6]
  IC50: 25 to 250 nM
CDK2/CCNE1; [7]
  IC50: < 25 nM

## COc1ccc(C#Cc2nccc3cnc(Nc4ccc(S(C)(=O)=O)cc4)cc23)cn1 [Ex 646, 5-((6-methoxypyridin-3-yl)ethynyl)-N-(4-(methylsulfonyl)phenyl)-2,6-naphthyridin-3-amine]
CDK6/CCND1; [8]
  IC50: > 250 nM
CDK4/CCND3; [9]
  IC50: > 250 nM
CDK1/CCNB1; [10]
  IC50: > 250 nM
CDK2/CCNE1; [11]
  IC50: 25 to 250 nM

## CS(=O)(=O)c1ccc(Nc2cc3c(C#Cc4ccc(CN5CCOCC5)cc4)nccc3cn2)cc1 [Example 666, N-(4-(methylsulfonyl)phenyl)-5-((4-(morpholinomethyl)phenyl)ethynyl)-2,6-naphthyridin-3-amine]
CDK6/CCND1; [8]
  IC50: > 250 nM
CDK4/CCND3; [9]
  IC50: > 250 nM
CDK1/CCNB1; [10]
  IC50: > 250 nM
CDK2/CCNE1; [7]
  IC50: < 25 nM

## Cc1cc2[nH]ncc2cc1-c1nccc2cnc(Nc3ccc(S(C)(=O)=O)cc3)cc12 [Ex 597, 5-(6-methyl-1H-indazol-5-yl)-N-(4-(methylsulfonyl)phenyl)-2,6-naphthyridin-3-amine]
CDK6/CCND1; [8]
  IC50: > 250 nM
CDK4/CCND3; [9]
  IC50: > 250 nM
CDK1/CCNB1; [10]
  IC50: > 250 nM
CDK2/CCNE1; [11]
  IC50: 25 to 250 nM

## Cc1c(-c2nccc3cnc(Nc4ccc(NS(=O)(=O)c5ccc(N6CCNCC6)cc5)cc4)cc23)ccc2c1cnn2CC(C)(C)O [Ex 767, N-(4-((5-(1-(2-hydroxy-2-methylpropyl)-4-methyl-1H-indazol-5-yl)-2,6-naphthyridin-3-yl)amino)phenyl)-4-(piperazin-1-yl)benzenesulfonamide]
CDK6/CCND1; [12]
  IC50: > 250 nM
CDK4/CCND3; [13]
  IC50: > 250 nM
CDK1/CCNB1; [14]
  IC50: > 250 nM
CDK2/CCNE1; [3]
  IC50: < 25 nM

## Cc1c(-c2nccc3cnc(Nc4ccc(S(=O)(=O)N(c5ncccn5)C5CC5)cc4)cc23)ccc2c1cnn2CC(O)(C(F)(F)F)C(F)(F)F [Example 698, N-cyclopropyl-4-((5-(4-methyl-1-(3,3,3-trifluoro-2-hydroxy-2-(trifluoromethyl)propyl)-1H-indazol-5-yl)-2,6-naphthyridin-3-yl)amino)-N-(pyrimidin-2-yl)benzenesulfonamide]
CDK6/CCND1; [12]
  IC50: > 250 nM
CDK4/CCND3; [13]
  IC50: > 250 nM
CDK1/CCNB1; [14]
  IC50: > 250 nM
CDK2/CCNE1; >250 nM, CDK2/CCNE, read-out: CDK2/CCNE IC50, >250 nM
  IC50: > 250 nM

## CS(=O)(=O)c1ccc(Nc2cc3c(C#Cc4cccn5ncnc45)nccc3cn2)cc1 [Ex 502, 5-([1,2,4]triazolo[1,5-a]pyridin-8-ylethynyl)-N-(4-(methylsulfonyl)phenyl)-2,6-naphthyridin-3-amine]
CDK6/CCND1; [8]
  IC50: > 250 nM
CDK4/CCND3; [9]
  IC50: > 250 nM
CDK1/CCNB1; [10]
  IC50: > 250 nM
CDK2/CCNE1; [11]
  IC50: 25 to 250 nM

## Cc1c(-c2nccc3cnc(Nc4ccc(S(=O)(=O)Nc5cccc(N6CCOCC6)c5)cc4)cc23)ccc2c1cnn2CC(O)(C(F)(F)F)C(F)(F)F [Ex 738, 4-((5-(4-methyl-1-(3,3,3-trifluoro-2-hydroxy-2-(trifluoromethyl)propyl)-1H-indazol-5-yl)-2,6-naphthyridin-3-yl)amino)-N-(3-morpholinophenyl)benzenesulfonamide]
CDK6/CCND1; [12]
  IC50: > 250 nM
CDK4/CCND3; [13]
  IC50: > 250 nM
CDK1/CCNB1; [14]
  IC50: > 250 nM
CDK2/CCNE1; 25-250 nM, CDK2/CCNE, read-out: CDK2/CCNE IC50, 25-250 nM
  IC50: 25 to 250 nM

## CCS(=O)(=O)c1ccc(Nc2cc3c(C#Cc4ccc5c(c4)NC(=O)C54CCC4)nccc3cn2)cc1 [Ex 405, 6'-((7-((4-(ethylsulfonyl)phenyl)amino)-2,6-naphthyridin-1-yl)ethynyl)spiro[cyclobutane-1,3'-indolin]-2'-one]
CDK6/CCND1; [8]
  IC50: > 250 nM
CDK4/CCND3; [9]
  IC50: > 250 nM
CDK1/CCNB1; [6]
  IC50: 25 to 250 nM
CDK2/CCNE1; [7]
  IC50: < 25 nM

## CC(=O)NCCn1cc2c(C)c(-c3nccc4cnc(Nc5ccc(S(C)(=O)=O)cc5)cc34)ccc2n1 [Example 630, N-(2-(4-methyl-5-(7-((4-(methylsulfonyl)phenyl)amino)-2,6-naphthyridin-1-yl)-2H-indazol-2-yl)ethyl)acetamide]
CDK6/CCND1; [4]
  IC50: 25 to 250 nM
CDK4/CCND3; [5]
  IC50: 25 to 250 nM
CDK1/CCNB1; [10]
  IC50: > 250 nM
CDK2/CCNE1; [7]
  IC50: < 25 nM

## CS(=O)(=O)c1ccc(Nc2ncc3ccc(C#N)c(C#Cc4ccc(C#N)cc4)c3n2)cc1 [Example 955, 8-((4-cyanophenyl)ethynyl)-2-((4-(methylsulfonyl)phenyl)amino) quinazoline-7-carbonitrile]
CDK6/CCND1; 1 nM CDK6/CCND1, 1 mM ATP, read-out: CDK6/CCND IC50 >250 nM
  IC50: > 250 nM
CDK4/CCND3; 1.5 nM CDK4/CCND3, 1 mM ATP, read-out: CDK4/CCND IC50 >250 nM
  IC50: > 250 nM
CDK1/CCNB1; 0.5 nM CDK1/CCNB1, 1 mM ATP, read-out: CDK1/CCNB IC50 >250 nM
  IC50: > 250 nM
CDK2/CCNE1; 3 nM CDK2/CCNE1, 1 mM ATP, read-out: CDK2/CCNE IC50 >250 nM
  IC50: > 250 nM

## CCNS(=N)(=O)c1ccc(Nc2cc3c(-c4ccc5c(cnn5CC(O)(C(F)(F)F)C(F)(F)F)c4C)nccc3cn2)cc1 (single isomer, unassigned) [Ex 692, N-ethyl-4-((5-(4-methyl-1-(3,3,3-trifluoro-2-hydroxy-2-(trifluoromethyl)propyl)-1H-indazol-5-yl)-2,6-naphthyridin-3-yl)amino)benzenesulfonimidamide]
CDK6/CCND1; [1]
  IC50: 25 to 250 nM
CDK4/CCND3; [2]
  IC50: 25 to 250 nM
CDK1/CCNB1; [14]
  IC50: > 250 nM
CDK2/CCNE1; [3]
  IC50: < 25 nM

## COc1cc(Nc2cc3c(-c4ccc5c(cnn5CCO)c4C)nccc3cn2)ccc1S(C)(=O)=O [Ex 617, 2-(5-(7-((3-methoxy-4-(methylsulfonyl)phenyl)amino)-2,6-naphthyridin-1-yl)-4-methyl-1H-indazol-1-yl)ethan-1-ol]
CDK6/CCND1; [8]
  IC50: > 250 nM
CDK4/CCND3; [9]
  IC50: > 250 nM
CDK1/CCNB1; [10]
  IC50: > 250 nM
CDK2/CCNE1; [11]
  IC50: 25 to 250 nM

## Cc1c(-c2nccc3cnc(Nc4ccc(S(=O)(=O)Nc5cccc(N6CCOCC6)c5)cc4)cc23)ccc2c1cnn2CC(C)(C)O [Ex 803, 4-((5-(1-(2-hydroxy-2-methylpropyl)-4-methyl-1H-indazol-5-yl)-2,6-naphthyridin-3-yl)amino)-N-(3-morpholinophenyl)benzenesulfonamide]
CDK6/CCND1; [12]
  IC50: > 250 nM
CDK4/CCND3; [13]
  IC50: > 250 nM
CDK1/CCNB1; [14]
  IC50: > 250 nM
CDK2/CCNE1; [3]
  IC50: < 25 nM

## CC(=O)Nc1ccc(C#Cc2nccc3cnc(Nc4ccc(S(C)(=O)=O)cc4)cc23)cc1 [Ex 631, N-(4-((7-((4-(methylsulfonyl)phenyl)amino)-2,6-naphthyridin-1-yl)ethynyl)phenyl)acetamide]
CDK6/CCND1; [8]
  IC50: > 250 nM
CDK4/CCND3; [9]
  IC50: > 250 nM
CDK1/CCNB1; [10]
  IC50: > 250 nM
CDK2/CCNE1; [7]
  IC50: < 25 nM

## CS(=O)(=O)c1ccc(Nc2cc3c(C#Cc4cc5c(cc4F)C4(CC4)C(=O)N5)nccc3cn2)cc1 [Example 378, 5′-fluoro-6′-((7-((4-(methylsulfonyl)phenyl)amino)-2,6-naphthyridin-1-yl)ethynyl)spiro[cyclopropane-1,3′-indolin]-2′-one]
CDK6/CCND1; [8]
  IC50: > 250 nM
CDK4/CCND3; [9]
  IC50: > 250 nM
CDK1/CCNB1; [10]
  IC50: > 250 nM
CDK2/CCNE1; [7]
  IC50: < 25 nM
